The values that follow come from patent US20250041237A1, “HEMOGLOBIN-BASED NANOPARTICLES” (priority 2023, published 2025).

Test [1] deals with murine or human neutrophils. The experiment in a line: Transwell chemotaxis assay. The test is classed as cell-based. As to conditions: lipid radical scavenger added. An excerpt: Transwell chemotaxis assay. Cytoplasmic membranes of S. aureus Newman, MRSA, or MDRSA were isolated from lysostaphin-induced protoplasts as previously described. Briefly, the bacterial cells were washed and resuspended in buffered hypertonic sucrose, followed by treatment with lysostaphin to digest the cell walls. The resulting protoplasts were recovered and lysed in the dilute buffer to extract cytoplasmic membranes. To evaluate the chemotaxis ability of human or murine neutrophils towards S. aureus membranes, a 96-transwell plate with 3 μm pores was used (Corning, USA). The bottom wells were loaded with 200 μL of the bacterial cell membrane in chemotaxis buffer (49% HBSS, 0.5% human serum albumin, 4 mM L-glutamine, and 49% RPMI 1640), while the top wells contained 2×10^5 neutrophils in 75 μL chemotaxis buffer. The plate was incubated in the dark at 37° C. with 5% CO2 for 1.5 h. Neutrophils that had migrated into the bottom wells were lysed with elastase assay buffer to release the neutrophil elastase. The activity of elastase was measured using the chromogenic substrate, N-methoxysuccinyl-Ala-Ala-Pro-Val-p-nitroanilide, at a final concentration of 1 mM. The absorbance at 405 nm was measured using a GloMax-Multi microplate multimode reader (Promega, WI, USA) to determine the number of migrated neutrophils.

Test [2] concerns MRSA. Put plainly: Mouse MRSA peritonitis model study. Format: in vivo, ICR mice. Conditions: treated i.v. 6 h after MRSA i.p. inoculation; monitored two weeks.

As for `Clc1cccc(CN=C2Nc3ccccc3NC23CCNCC3)c1` [Liproxstatin-1], in test [1], the “Hb-Naf@RBCM-induced neutrophil recruitment” value is “significantly inhibited”.

In test [2], `CN(C/C=C/c1ccccc1)Cc1cccc2ccccc12` [naftifine] had a survival of 12.5%.
